Source: patent US7119091B2, “Triazaspiro[5.5]undecane derivatives and pharmaceutical compositions comprising thereof, as an active ingredient” (Ono Pharmaceutical Co., Ltd., priority 1999, dated 2006)
Where a name gives a salt, the structure may show the parent alone.

Tests used:
[1] = target: human CCR5 stably over-expressing CHO cell (CCR5/CHO cell) (Homo sapiens, UniProt P51681); experiment: Inhibition test on the binding of RANTES to CCR5 (RANTES-induced transient increase of Ca ion); assay type: cell-based; details: inhibition of Ca2+ transient increase induced by 10 nM recombinant human RANTES in CCR5/CHO cells
Protocol: (1) Isolation of Human CCR5 Gene
Human placental cDNA was prepared using Marathon cDNA amplification kit (Clontech). PCR primers hCCR5XbaI-F1: 5′-[sequence]-3′ (SEQ ID NO:1) and hCCR5XbaI-R1: 5′-[sequence]-3′ (SEQ ID NO:2) were designed based on the sequence of GenBank U54994.
Using the human placental cDNA as the template and using Ex Taq (Takara), PCR reaction (2 minutes at 95° C.→(30 seconds at 95° C., 45 seconds at 60° C., 1 minute at 72° C.)×35 times) was carried out. The thus amplified PCR product was subjected to a 1% agarose gel electrophoresis, purified using QIAquick Gel Extraction Kit (QUIAGEN) and then digested with a restriction enzyme XbaI. […] By preparing the resulting plasmid pEF-BOS-bsr/hCCR5, its DNA sequence was verified. […]
The thus established human CCR5 stably over-expressing CHO cell (CCR5/CHO cell) was suspended in Ham's F-12 medium containing FBS (10%) and dispensed in 3.0×10^6 cells/well portions into a 96 well plate. […] Transient increase in the intracellular Ca^2+ concentration induced by the human RANTES was measured using a Ca^2+ detector for 96 well use (Hamamatsu Photonics), and inhibition ratio (%) of the test compound was calculated by the following calculation formula. Inhibition ratio=(Ec−Ea)/Ec×100 • Ec: measured value of Ca^2+ transient increase by RANTES • Ea: measured value of Ca^2+ transient increase by RANTES when a test compound was added

[2] = target: T1, human CCR2-expressing cell, human monocyte cell strain THP-1 (Homo sapiens, UniProt P41597); experiment: Inhibition test on the binding of MCP-1 to CCR2 (MCP-1-induced transient increase of Ca ion); assay type: cell-based; details: inhibition of Ca2+ transient increase induced by 30 nM recombinant human MCP-1 in THP-1 cells
T1 construct: A human CCR2-expressing cell, e.g., a human monocyte cell strain THP-1 (ATCC No. TIB-202); host or cells: THP-1
T1 sequence (P41597 1-360 isoform P41597-2): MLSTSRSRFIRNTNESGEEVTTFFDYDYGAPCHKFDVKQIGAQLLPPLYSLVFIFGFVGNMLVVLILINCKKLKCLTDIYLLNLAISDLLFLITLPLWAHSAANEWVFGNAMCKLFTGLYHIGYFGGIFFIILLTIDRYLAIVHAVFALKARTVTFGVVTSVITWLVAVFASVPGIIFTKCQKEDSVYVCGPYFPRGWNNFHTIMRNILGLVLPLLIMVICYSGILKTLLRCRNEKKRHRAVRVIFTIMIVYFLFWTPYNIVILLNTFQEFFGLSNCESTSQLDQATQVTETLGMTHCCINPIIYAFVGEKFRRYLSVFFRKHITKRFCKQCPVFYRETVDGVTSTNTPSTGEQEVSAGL
Excerpt: An assay system for finding a compound having adsorption inhibition effect on CCR5 directional HIV strain was described in the foregoing, and it is possible as a matter of course to find a compound capable of inhibiting the activity of CCR5 or a ligand thereof using this system. In the same manner, it is possible to find a compound capable of inhibiting the activity of other chemokine receptor or a ligand thereof. For example, a system for finding a compound capable of inhibiting the activity of CCR2 or a ligand thereof can be constructed. […]
A human CCR2-expressing cell, e.g., a human monocyte cell strain THP-1 (ATCC No. TIB-202), was suspended in RPMI 1640 medium containing FBS (10%), Fura-2AM (5 μM), Probenecid (2.5 mM) and HEPES (20 mM, pH 7.4) to a density of 5.0×10^6 cells/ml and incubated at 37° C. for 30 minutes under shaded condition. […] Transient increase in the intracellular Ca 2+concentration induced by the human MCP-1 was measured using a Ca^2+ detector for 96 well use (Hamamatsu Photonics), and inhibition ratio (%) of the test compound was calculated by the following calculation formula. Inhibition ratio=(Ec−Ea)/Ec×100 • Ec: measured value of Ca^2+ transient increase by MCP-1 • Ea: measured value of Ca^2+ transient increase by MCP-1 when a test compound was added

human CCR5 stably over-expressing CHO cell (CCR5/CHO cell), sequence (P51681 whole entry): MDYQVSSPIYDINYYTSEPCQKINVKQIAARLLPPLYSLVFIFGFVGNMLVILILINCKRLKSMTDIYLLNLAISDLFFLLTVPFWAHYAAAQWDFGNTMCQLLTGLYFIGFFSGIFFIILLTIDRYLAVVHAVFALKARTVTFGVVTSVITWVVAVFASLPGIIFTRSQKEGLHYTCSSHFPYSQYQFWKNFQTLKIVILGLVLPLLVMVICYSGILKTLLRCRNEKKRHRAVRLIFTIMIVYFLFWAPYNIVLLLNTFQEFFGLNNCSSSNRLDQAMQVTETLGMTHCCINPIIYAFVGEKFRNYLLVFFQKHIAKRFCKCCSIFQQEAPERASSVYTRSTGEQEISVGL

IC50 [1] [nM] | IC50 [2] [µM] | SMILES
50 |  | CCCCN1C(=O)C(CC2CCCCC2)NC(=O)C12CCN(Cc1c[nH]c(-c3ccccc3)n1)CC2 (stereo not drawn) [Example 2(2), 1-butyl-3-cyclohexylmethyl-2,5-dioxo-9-(2-phenylimidazol-4-ylmethyl)-1,4,9-triazaspiro[5.5]undecane.2 hydrochloride]
 | 3 | CCCN1C(=O)[C@H](CCCCNC(=O)OCc2ccccc2)NC(=O)C12CCN(CCc1ccccc1)CC2 [Example 5(2), (3S)-1-propyl-2,5-dioxo-3-(4-(N-benzyloxycarbonyl)aminobutyl)-9-(2-phenylethyl)-1,4,9-triazaspiro[5.5]undecane.hydrochloride]
50 |  | CCCCN1C(=O)C(CC2CCCCC2)NC(=O)C12CCN(Cc1ccc3c(c1)OCCO3)CC2 (stereo not drawn) [Example 2(1), 9-(1,4-benzodioxan-6-ylmethyl)-1-butyl-3-cyclohexylmethyl-2,5-dioxo-1,4,9-triazaspiro[5.5]undecane.hydrochloride]
